# Read-outs that look alike come from different tables or passages of the source.
# What was measured:
# [1] = Cell viability assay (MTS) in non-infected cells; conditions: human
# p97 = target: T1, p97 (Homo sapiens, UniProt P55072); test: p97 biochemical assay (ATPase activity, PNP/MesG coupled); conditions: 0.2 mM ATP, 5 min preincubation; for inhibition at 0.1 µM: read-out: p97 Inhib. (%) at 0.10 µM, compound 0.10 µM; for inhibition at 1 µM: read-out: p97 Inhib. (%) at 1.0 µM, compound 1.0 µM; for p97 Inhib. (%) at 0.10 µM: compound 0.10 µM
# T1 construct: made in house
# [2] = tested on: SARS-CoV-2 isolate USA-WA1/2020; test: microbe, parasite or virus in culture; type: cell-based; conditions: for EC50: read-out: SARS-CoV-2 EC50; for inhibition at 2.1 µM: Conc. 2.1 µM (0.4 × CC50)
# A549/ACE2/TMPRSS2 cells = test: Cell viability assay (MTS) in non-infected cells
# [3] = tested at 0.4 × CC50, or at 50 µM if CC50 higher than 100 µM, A549/ACE2/TMPRSS2
# [4] = Severe acute respiratory syndrome coronavirus 2, A549-ACE2, 48 h
# [5] = Severe acute respiratory syndrome coronavirus 2, A549-ACE2, 48 h, read-out: SARS-CoV-2 Inhib. (%)
# [6] = Severe acute respiratory syndrome coronavirus 2, Conc. 50 µM, A549/ACE2/TMPRSS2, MOI 0.01, 48 h, mean ± standard error, read-out: SARS-CoV-2 Inhib. (%)
# [7] = Severe acute respiratory syndrome coronavirus 2, A549/ACE2/TMPRSS2, MOI 0.01, 48 h, mean ± standard error, read-out: SARS-CoV-2 Inhib. (%)
# T1 sequence (P55072 whole entry): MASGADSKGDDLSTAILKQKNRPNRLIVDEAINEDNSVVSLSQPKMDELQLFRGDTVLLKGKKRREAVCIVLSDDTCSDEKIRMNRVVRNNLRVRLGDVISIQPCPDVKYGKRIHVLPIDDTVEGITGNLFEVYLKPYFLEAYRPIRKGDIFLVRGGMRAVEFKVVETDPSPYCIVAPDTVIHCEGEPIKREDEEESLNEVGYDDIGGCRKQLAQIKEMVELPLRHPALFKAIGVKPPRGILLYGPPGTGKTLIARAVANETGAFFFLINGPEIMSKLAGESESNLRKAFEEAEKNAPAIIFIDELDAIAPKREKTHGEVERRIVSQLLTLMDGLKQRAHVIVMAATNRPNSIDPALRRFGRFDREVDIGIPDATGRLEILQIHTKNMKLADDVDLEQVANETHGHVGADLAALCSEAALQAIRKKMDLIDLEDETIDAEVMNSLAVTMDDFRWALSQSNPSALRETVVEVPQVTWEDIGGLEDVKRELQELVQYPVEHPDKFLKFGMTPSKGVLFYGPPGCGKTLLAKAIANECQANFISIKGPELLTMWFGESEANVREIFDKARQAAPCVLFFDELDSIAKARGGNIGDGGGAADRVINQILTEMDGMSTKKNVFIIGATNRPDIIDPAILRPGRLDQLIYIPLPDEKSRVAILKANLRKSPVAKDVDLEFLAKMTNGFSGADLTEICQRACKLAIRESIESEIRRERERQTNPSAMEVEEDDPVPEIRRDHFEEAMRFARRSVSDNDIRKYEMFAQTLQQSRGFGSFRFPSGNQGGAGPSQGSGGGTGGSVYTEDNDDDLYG
Compound,CC50 at 48 h [1],inhibition at 0.1 µM (p97),inhibition at 1 µM (p97),"anti-SARS-CoV-2 activity (in words) [2, 3]",further results
"C=CS(=O)(=O)Nc1cccc2c1cc(C)n2-c1nc(NCc2ccccc2)cc(C2CCCCC2)n1 [Compound 10c, N-(1-(4-(Benzylamino)-6-cyclohexylpyrimidin-2-yl)-2-methyl-1H-indol-4-yl)ethenesulfonamide]",12 µM,68%,95%,marginal inhibition,"inhibition at 4.8 µM ([2]; Severe acute respiratory syndrome coronavirus 2, Conc. 4.8 µM (0.4 × CC50), A549/ACE2/TMPRSS2, MOI 0.01, 48 h, mean ± standard error, read-out: SARS-CoV-2 Inhib. (%)): 7 ± 3%"
"CC#CC(=O)Nc1cccc2c1cc(C)n2-c1nc(NCc2ccccc2)cc(N2CCCCC2)n1 [Compound 9a, N-(1-(4-(Benzylamino)-6-(piperidin-1-yl)pyrimidin-2-yl)-2-methyl-1H-indol-4-yl)but-2-ynamide]",76 µM,> 90%,100%,excellent antiviral activity,"p97 Inhib. (%) at 0.10 µM (p97): 94%; EC50 [2, 4]: 6.7 ± 0.8 µM; inhibition at 30 µM [2, 5]: 98%"
"CC#CC(=O)Nc1cccc2c1cc(C)n2-c1nc(NCc2ccccc2)cc(C2CCCCC2)n1 [Compound 10a, N-(1-(4-(Benzylamino)-6-cyclohexylpyrimidin-2-yl)-2-methyl-1H-indol-4-yl)but-2-ynamide]",> 100 µM,~90%,100%,excellent antiviral activity,"EC50 [2, 4]: 6.8 ± 0.6 µM; inhibition at 50 µM [2, 5]: 96 ± 1%"
"C=CC(=O)Nc1cccc2c1cc(C)n2-c1nc(NCc2ccccc2)cc(N2CCCCC2)n1 [Compound 9b, N-(1-(4-(Benzylamino)-6-(piperidin-1-yl)pyrimidin-2-yl)-2-methyl-1H-indol-4-yl)acrylamide]",–,64%,91%,markedly reduced,"inhibition at 50 µM [2, 6]: 28 ± 3%"
"CC#CC(=O)Nc1cccc2c1cc(C)n2-c1nc(NCc2ccccc2)cc(N2CCOCC2)n1 [Compound 8a, N-(1-(4-(Benzylamino)-6-morpholinopyrimidin-2-yl)-2-methyl-1H-indol-4-yl)but-2-ynamide]",2.4 µM,~90%,97%,–,"inhibition at 0.96 µM [2, 5]: 3 ± 5%"
"Cc1cc(OCc2nnc(SC3CCCC3)n2-c2cccnc2)ccc1-c1ccc(S(C)(=O)=O)cc1 [NMS-873, reference compound]",4.1 µM,5%,84%,minimal inhibition,"fold less toxic than CB-5083 (A549/ACE2/TMPRSS2 cells; A549/ACE2/TMPRSS2 cells, relative to CB-5083): approximately 4 fold; p97 Inhib. (%) at 0.10 µM (p97): poor inhibition; inhibition at 1.6 µM ([2]; Severe acute respiratory syndrome coronavirus 2, Conc. 1.6 µM (0.4 × CC50), A549/ACE2/TMPRSS2, MOI 0.01, 48 h, mean ± standard error, read-out: SARS-CoV-2 Inhib. (%)): 0%"
"C=CC(=O)Nc1cccc2c1cc(C)n2-c1nc(NCc2ccccc2)cc(C2CCCCC2)n1 [Compound 10b, N-(1-(4-(Benzylamino)-6-cyclohexylpyrimidin-2-yl)-2-methyl-1H-indol-4-yl)acrylamide]",> 100 µM,70%,96%,markedly reduced,"inhibition at 50 µM [2, 6]: 30 ± 9%"
"C=CC(=O)Nc1cccc2c1cc(C)n2-c1nc(NCc2ccccc2)cc(N2CCOCC2)n1 [Compound 8b, N-(1-(4-(Benzylamino)-6-morpholinopyrimidin-2-yl)-2-methyl-1H-indol-4-yl)acrylamide]",5.2 µM,77%,96%,–,"inhibition at 2.1 µM [2, 7]: 5 ± 8%"
"CC#CC(=O)Nc1cccc2c1cc(C)n2-c1nc2c(c(NCc3ccccc3)n1)COCC2 [Compound 6b, reference compound]",–,38%,95%,minimal inhibition,"inhibition at 0.46 µM ([2]; Severe acute respiratory syndrome coronavirus 2, Conc. 0.46 µM (0.4 × CC50), A549/ACE2/TMPRSS2, MOI 0.01, 48 h, mean ± standard error, read-out: SARS-CoV-2 Inhib. (%)): 5%"
"Cc1cc2c(C(N)=O)cccc2n1-c1nc2c(c(NCc3ccccc3)n1)COCC2 [CB-5083, reference compound]",0.95 µM,–,–,–,"CC50 (A549/ACE2/TMPRSS2 cells; non-infected A549/ACE2/TMPRSS2 cells, MTS, 48 h): highly toxic; anti-SARS-CoV-2 activity (in words) [2]: minimal inhibition; inhibition at 0.38 µM [2, 5]: 6 ± 4%"
"C=CS(=O)(=O)Nc1cccc2c1cc(C)n2-c1nc(NCc2ccccc2)cc(N2CCCCC2)n1 [Compound 9c, N-(1-(4-(Benzylamino)-6-(piperidin-1-yl)pyrimidin-2-yl)-2-methyl-1H-indol-4-yl)ethenesulfonamide]",15 µM,73%,95%,marginal inhibition,"inhibition at 5.9 µM [2, 5]: 0%"
"C=CS(=O)(=O)Nc1cccc2c1cc(C)n2-c1nc(NCc2ccccc2)cc(N2CCOCC2)n1 [Compound 8c, N-(1-(4-(Benzylamino)-6-morpholinopyrimidin-2-yl)-2-methyl-1H-indol-4-yl)ethenesulfonamide]",5.2 µM,65%,89%,–,"inhibition at 2.1 µM [2, 7]: 8 ± 3%"
"CC#CC(=O)Nc1cccc2c1cc(C)n2-c1nc2c(c(NCc3ccccc3)n1)CCCC2 [Compound 6a, reference compound]",–,57%,97%,minimal inhibition,"inhibition at 0.22 µM ([2]; Severe acute respiratory syndrome coronavirus 2, Conc. 0.22 µM (0.4 × CC50), A549/ACE2/TMPRSS2, MOI 0.01, 48 h, mean ± standard error, read-out: SARS-CoV-2 Inhib. (%)): 6 ± 3%"
"CCC(CC)COC(=O)[C@H](C)N[P@](=O)(OC[C@H]1O[C@@](C#N)(c2ccc3c(N)ncnn23)[C@H](O)[C@@H]1O)Oc1ccccc1 [remdesivir, reference compound]",> 10 µM,–,–,–,"EC50 [2, 4]: 0.044 µM; inhibition at 2 µM [2, 5]: 100%"
Cc1cc2c(C(N)=O)cccc2n1-c1nc(NCc2ccccc2)cc(C2CCCCC2)n1 [Compound 12],–,18%,21%,–,p97 Inhib. (%) at 1.0 µM (p97; compound 1.0 µM): minimal inhibition
